Laboratory results from publication PMC8480901 (PLoS ONE, 2021).
Several values for one entry are separate records, joined by “and”; a condition that tells them apart may be missing. Equal entries are not always repeated. Where two headings read alike, the source gives them in different places.

Experiments:
[1] = tested on: LPS-induced acute lung injury; details: pretreatment in LPS-induced acute lung injury models; cited from earlier work
[2] = tested on: IL-8–activated human neutrophils; test: Chemotaxis of IL-8–activated human neutrophils (transwell, CellTiter Glo); assay type: cell-based; details: for Neutrophilic chemotaxis, RLU, Mean / Neutrophilic chemotaxis: % reduction / Neutrophilic chemotaxis, RLU, single replicates: IL-8; for Neutrophilic chemotaxis, RLU, single replicates: listed as Azi
From the text: Buffy coat (blood sample fraction comprising white blood cells and platelets) from whole blood was obtained from a healthy adult volunteer at the Croatian Institute of Transfusion Medicine (CITM; Zagreb, Croatia). The CITM ethics committee approved the blood collection process, and the volunteer provided written informed consent prior to blood collection. Neutrophils were isolated from the buffy coat, an aliquot of which was used for cell counting via hematologic analyzer (X500i; Sysmex). […] The diluted buffy coat was drawn into sterile 50-mL syringes and incubated for 30 minutes at RT. Following incubation, the upper layer of leukocyte-rich plasma (35 mL) was decanted into a new sterile 50-mL conical centrifuge tube, carefully layered onto 15 mL of Lymphoprep (Axis-Shield Diagnostics, Ltd., Dundee, UK) and centrifuged at 400×g (brake turned off) for 35 minutes at RT. The supernatant and mononuclear ring were discarded, and the pellet was resuspended in 10 mL of cold sterile MilliQ water. […] Resuspended neutrophils were counted via Sysmex X500i hematologic analyzer.
All test compounds were reconstituted in DMSO (Sigma-Aldrich Chemie GmbH) to 100-mM stock concentrations, taking into consideration and correcting for salt and purity. A 30-mM stock solution of reference compound Sch527123 (MedChemExpress, Monmouth Junction, NJ, USA) was diluted to 10 mM with DMSO.
DMSO was used as vehicle. […] The reference compound was tested at concentrations of 0.003, 0.01, 0.03, 0.1, 0.3, 1, 3, and 10 μM. All compounds were tested in triplicate, and the final DMSO concentration was 0.1% per well.
Test and reference compound working solutions were then added (20 μL/well) for a 10-fold dilution to final testing concentrations. Compounds and cells were mixed by gentle pipetting, and the plate was pre-incubated for 30 minutes at RT with gentle mixing by pipetting.
Negative control wells received 180 μL of migration medium alone. To all wells, 20 μL of compound working solutions or DMSO vehicle was added. Once pre-incubation of cells with compounds was complete, the transwell inserts were carefully placed on the receiver plate, with caution to avoid air bubble formation, which could prevent cell migration. To the upper wells, 75 μL of cell suspension (375,000 cells/well) was added, taking care not to tear the membrane with pipette tips.
After incubation, the number of cells that migrated to the lower wells was quantified by removing the Transwell insert and adding 200 μL of CellTiter Glo reagent (CellTiter-Glo Luminescent Cell Viability Assay, Promega, Madison, WI, USA) to each lower well to quantify the amount of adenosine triphosphate (ATP) present, signaling the presence of metabolically active cells. The plate was incubated for 10 minutes in the dark at RT, followed by transferring 150 μL of solution into wells of a white 96-well plate (Lumitrac 200; Greiner Bio-One International GmbH, Kremsmunster, Austria).
(§1) For the chemotaxis and cytotoxicity evaluations, average relative light unit values were calculated from all untreated vehicle samples and, for each sample, percentage of vehicle value was calculated. The tested compound was considered cytotoxic if reduction from untreated vehicle was ≥20%.

human neutrophils = test: Cytotoxicity in human neutrophils (CellTiter Glo); assay type: cell-based; details: ≤100 μM, cytotoxic if reduction from vehicle ≥20%
Experimental: as §1

[3] = Pharmacokinetics in plasma and epithelial lining fluid of mice after a single SC dose; assay type: in vivo, BALB/c mice; details: mice; for AUC(0-t): read-out: AUC0-24h, mean±SEM; for Cmax: read-out: Cmax, mean±SEM
Experimental: Pharmacokinetic parameters were evaluated as previously described. […] Plasma samples were analyzed by liquid chromatography with […] mass spectrometry (Q Exactive Plus; Thermo Fisher Scientific).
Area under the curve (AUC) values were determined using the linear trapezoidal method.

J774.2 mouse macrophages = test: Cytotoxicity in J774.2 mouse macrophages (adenylate kinase release, ToxiLight); assay type: cell-based; details: J774.2 cells; 100 μM
Experimental: The effect of t est compounds on cell viabilit y of J 774.2 macrophages and human PBMCs […]
was determined b y comp aring th e aden yl ate kinas e signal obtain ed in the p resence of diff er ent concentrations of compounds with those obtained in DMSO (vehicle) control. Signals were […]
divided,and the results were ex pressed as fold-change versus v ehicle con trol .

[4] = female, BALB/c, mouse, epithelial lining fluid (ELF), ELF, single 35 mg/kg SC
[5] = female, BALB/c, mouse, plasma, single 35 mg/kg SC

CC[C@H]1OC(=O)[C@H](C)[C@@H](O[C@H]2C[C@@](C)(OC)[C@@H](O)[C@H](C)O2)[C@H](C)[C@@H](O[C@@H]2O[C@H](C)C[C@H](N(C)C)[C@H]2O)[C@](C)(O)C[C@@H](C)CN(C)[C@H](C)[C@@H](O)[C@]1(C)O [Azithromycin]
neutrophil recruitment [1]: significantly reduced | IL-8–induced chemotaxis of human neutrophils ([2]; 0.03 to 30 μM): no effect | Neutrophilic chemotaxis, RLU, Mean ([2]; 0.03 µM): 121773 RLU | Neutrophilic chemotaxis: % reduction ([2]; 0.03 µM): 10% | Neutrophilic chemotaxis, RLU, single replicates ([2]; 0.03 µM): 113920 RLU and 126240 RLU | Neutrophilic chemotaxis, RLU, Mean ([2]; 0.1 µM): 122140 RLU | Neutrophilic chemotaxis: % reduction ([2]; 0.1 µM): 9% | Neutrophilic chemotaxis, RLU, single replicates ([2]; 0.1 µM): 121960 RLU and 122320 RLU | Neutrophilic chemotaxis, RLU, Mean ([2]; 0.3 µM): 131533 RLU | Neutrophilic chemotaxis, RLU, single replicates ([2]; 0.3 µM): 126760 RLU and 132240 RLU and 135600 RLU | Neutrophilic chemotaxis, RLU, Mean ([2]; 1 µM): 117320 RLU | Neutrophilic chemotaxis: % reduction ([2]; 1 µM): 13% | Neutrophilic chemotaxis, RLU, single replicates ([2]; 1 µM): 120320 RLU and 118720 RLU and 112920 RLU | Neutrophilic chemotaxis, RLU, Mean ([2]; 3 µM): 121787 RLU | Neutrophilic chemotaxis: % reduction ([2]; 3 µM): 9.51% | Neutrophilic chemotaxis, RLU, single replicates ([2]; 3 µM): 127280 RLU and 119280 RLU and 118800 RLU | Neutrophilic chemotaxis, RLU, Mean ([2]; 10 µM): 120227 RLU | Neutrophilic chemotaxis: % reduction ([2]; 10 µM): 11% | Neutrophilic chemotaxis, RLU, single replicates ([2]; 10 µM): 119960 RLU and 123240 RLU and 117480 RLU | Neutrophilic chemotaxis, RLU, Mean ([2]; 30 µM): 136440 RLU | Neutrophilic chemotaxis: % reduction ([2]; 30 µM): -3% | Neutrophilic chemotaxis, RLU, single replicates ([2]; 30 µM): 143280 RLU and 148320 RLU and 117720 RLU | Neutrophilic chemotaxis, RLU, Mean ([2]; 100 µM): 142040 RLU | Neutrophilic chemotaxis: % reduction ([2]; 100 µM): -8% | Neutrophilic chemotaxis, RLU, single replicates ([2]; 100 µM): 140160 RLU and 151960 RLU and 134000 RLU | cytotoxic effects (human neutrophils): no cytotoxic effects | AUC0-24h/Dose, mean ([3]; ELF, single 35 mg/kg SC): 0.76 (μg∙h/mL)/(mg/kg) | Kp ([3]; female, BALB/c, mouse, epithelial lining fluid (ELF) / plasma, single 35 mg/kg SC, read-out: AUC ratio for ELF to plasma): ~2 | Tmax [3, 4]: 15 min | AUC(0-t) [3, 4]: 26700 ± 5780 ng·h/mL | Cmax [3, 4]: 2350 ± 1450 ng/mL | Tmax [3, 5]: 4.8 min | AUC(0-t) [3, 5]: 11600 ± 1370 ng·h/mL | Cmax [3, 5]: 2330 ± 830 ng/mL | distribution from plasma to ELF (penetration into the lung compartment) ([3]; single SC dose 35 mg/kg): rapid penetration | AUC0-24h/Dose, mean ([3]; plasma, single 35 mg/kg SC): 0.33 (μg∙h/mL)/(mg/kg) | cell viability (J774.2 mouse macrophages): reduced
